As usually defined, the pIC50 is −log10 of the IC50, conventionally taken in molar units. A high value points to a small IC50. The term clearance denotes the rate of elimination divided by the concentration. Broadly, the half-life is the time in which the quantity being followed falls by half. One may read the bioavailability as dose-corrected exposure relative to a reference, in per cent. Usually inhibition stands for the relative decrease from the control value, in per cent. A lower inhibition goes with a response near the control.

SMILES strings stand for the structures. pIC50: −log10 of the molar value.

For series [1], the target named is T1, Insulin-like growth factor 1 receptor (Homo sapiens, UniProt P08069). Put plainly: Inhibition of human IGF1R expressed in Sf21 cells by time-resolved fluorescence assay.
Series [2] addresses T1, Insulin-like growth factor 1 receptor. Description: Inhibition IGF1R phosphorylation in human MiaPaCa2 cells. It counts as cell-based.
The subject of series [3] is Mus musculus. Put plainly: Dose normalized AUC in po dosed mouse. In kind it is ADME, organism-based. The settings on record: in vivo.
Series [4] has as its system Mus musculus. Put plainly: Dose normalized AUC in iv dosed mouse. The settings on record: in vivo. In kind it is ADME, organism-based.
A short description of series [5]: Plasma clearance in mouse. In kind it is ADME, organism-based.
Series [6] in a line: Half life in mouse. In kind it is ADME, organism-based. The following applies: in vivo.
Series [7] can be described thus: Bioavailability in mouse. The settings on record: in vivo. It counts as ADME, organism-based.
Series [8] is described as follows: Drug concentration in C57BL/6 mouse plasma at 12.5 mg/kg, po after 4 hrs. In kind it is ADME, organism-based, C57BL6. The arrangement: dose 12.5 mg/kg, route oral.
The subject of series [9] is Mus musculus. Put plainly: In vivo inhibition of IFG1R autophosphorylation in C57BL/6 mouse lung at 12.5 mg/kg, po after 4 hrs. On the set-up: dose 12.5 mg/kg, route oral. In kind it is organism-based. The following applies: C57BL6, po.

T1 sequence (P08069 31-736 limits assumed): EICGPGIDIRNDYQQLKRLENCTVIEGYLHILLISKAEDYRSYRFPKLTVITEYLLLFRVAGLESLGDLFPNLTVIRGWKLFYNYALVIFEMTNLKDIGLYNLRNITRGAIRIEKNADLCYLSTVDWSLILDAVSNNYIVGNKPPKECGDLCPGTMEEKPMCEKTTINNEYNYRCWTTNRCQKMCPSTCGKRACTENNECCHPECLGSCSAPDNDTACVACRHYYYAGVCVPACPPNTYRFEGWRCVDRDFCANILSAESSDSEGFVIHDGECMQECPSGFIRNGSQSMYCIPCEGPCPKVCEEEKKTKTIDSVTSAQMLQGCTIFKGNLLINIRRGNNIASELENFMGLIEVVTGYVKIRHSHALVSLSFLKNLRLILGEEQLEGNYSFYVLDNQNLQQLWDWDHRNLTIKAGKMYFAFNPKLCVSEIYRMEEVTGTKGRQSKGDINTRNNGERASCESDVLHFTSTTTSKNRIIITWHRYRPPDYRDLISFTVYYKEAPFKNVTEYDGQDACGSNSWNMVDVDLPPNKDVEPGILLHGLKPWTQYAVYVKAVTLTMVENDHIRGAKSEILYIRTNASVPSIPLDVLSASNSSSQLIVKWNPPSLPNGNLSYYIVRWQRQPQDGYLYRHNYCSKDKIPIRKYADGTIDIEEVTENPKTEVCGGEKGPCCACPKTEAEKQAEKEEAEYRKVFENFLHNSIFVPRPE
T1 sequence (P08069 741-1367 limits assumed): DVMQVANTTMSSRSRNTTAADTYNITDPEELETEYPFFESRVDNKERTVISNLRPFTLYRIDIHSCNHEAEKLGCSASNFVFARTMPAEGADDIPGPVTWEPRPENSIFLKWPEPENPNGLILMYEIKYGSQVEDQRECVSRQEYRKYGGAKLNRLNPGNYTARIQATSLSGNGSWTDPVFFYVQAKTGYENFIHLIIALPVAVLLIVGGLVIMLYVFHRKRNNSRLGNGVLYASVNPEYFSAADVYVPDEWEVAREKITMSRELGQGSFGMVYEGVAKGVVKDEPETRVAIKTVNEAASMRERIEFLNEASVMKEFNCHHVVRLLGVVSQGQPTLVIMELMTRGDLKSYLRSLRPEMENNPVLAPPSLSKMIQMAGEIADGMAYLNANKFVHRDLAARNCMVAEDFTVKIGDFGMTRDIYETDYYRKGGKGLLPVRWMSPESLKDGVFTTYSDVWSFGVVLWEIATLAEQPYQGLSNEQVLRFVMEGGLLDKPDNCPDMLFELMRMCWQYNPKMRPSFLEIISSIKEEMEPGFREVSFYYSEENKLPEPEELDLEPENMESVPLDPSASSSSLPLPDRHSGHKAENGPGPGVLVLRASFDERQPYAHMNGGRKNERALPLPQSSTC

In the case of `Cc1ccccc1Cc1nc2ccc(-c3nn([C@H]4CC[C@H](N5CCOCC5)CC4)c4ncnc(N)c34)cc2[nH]1`, the pIC50 in series [1] is 7.42; in series [2] it was 6.93.

For the molecule `Nc1ncnc2c1c(-c1ccc3nc(Cc4cccs4)[nH]c3c1)nn2[C@H]1CC[C@H](N2CCOCC2)CC1`, the AUC was found to be 0.039 µmol·h/L/mg/kg in the series with Mus musculus [3] and 0.42 µmol·h/L/mg/kg with Mus musculus [4]. Besides, the pIC50 was 7.64 in series [1] and 7.25 in series [2]. For the same molecule, in [5], the clearance is 76.7 mL/min/kg. This molecule gave a half-life in series [6] of 0.6 h. Also, in series [7], the bioavailability was 9%.

Turning to `Nc1ncnc2c1c(-c1ccc3nc(Cc4ccsc4)[nH]c3c1)nn2[C@H]1CC[C@H](N2CCOCC2)CC1`, the pIC50 in [1] is 7.49; in series [2] it was 7.08.

Take `CN1CCN([C@H]2C[C@@H](c3nc(-c4ccc5ccc(-c6ccccc6)nc5c4)c4c(N)nccn43)C2)CC1`: the pIC50 is 7.43 in [1] and 7.24 in series [2].

With `Nc1ncnc2c1c(-c1ccc3[nH]c(-c4ccccc4)nc3c1)nn2[C@H]1CC[C@H](N2CCOCC2)CC1`, the negative logarithm of the IC50 (pIC50) in series [1] was 6.75; in [2], 6.10.

`Nc1ncnc2c1c(-c1ccc3nc(Cc4c(F)cccc4F)[nH]c3c1)nn2[C@H]1CC[C@H](N2CCOCC2)CC1`: the pIC50 in series [1] is 7.10; in [2] it was 6.98.

Take `Nc1ncnc2c1c(-c1ccc3nc(Cc4ccccc4)[nH]c3c1)nn2[C@H]1CC[C@H](N2CCOCC2)CC1`: the figures for the AUC with Mus musculus [3] and in the series with Mus musculus [4] were 0.16 µmol·h/L/mg/kg and 1.1 µmol·h/L/mg/kg, respectively. Moreover, the pIC50 in series [1] was 7.19; in series [2], 7.03. Moreover, the clearance in series [5] is 38.3 mL/min/kg. The molecule further showed a half-life in [6] of 1 h. In [7], this molecule came in with a bioavailability of 15%.

For `Nc1ncnc2c1c(-c1ccc3nc(Cc4ccc5ccccc5c4)[nH]c3c1)nn2[C@H]1CC[C@H](N2CCOCC2)CC1`, the pIC50 was 5.88 in series [1] and 5.63 in series [2].

With `Nc1ncnc2c1c(-c1ccc3nc(Cc4cccc(Cl)c4)[nH]c3c1)nn2[C@H]1CC[C@H](N2CCOCC2)CC1`, the pIC50 was 6.91 in series [1] and 6.43 in [2].

Regarding `Nc1ncnc2c1c(-c1ccc3[nH]c(Cc4c(F)cccc4Cl)nc3c1)nn2[C@H]1CC[C@H](N2CCOCC2)CC1`, the pIC50 in series [1] was 7.05; in series [2] it was 6.95.

`Nc1ncnc2c1c(-c1ccc3nc(Cc4ccc(F)c(F)c4)[nH]c3c1)nn2[C@H]1CC[C@H](N2CCOCC2)CC1`: the results for the pIC50 in series [1] and in series [2] were 6.17 and 6.09, respectively.

For `Nc1ncnc2c1c(-c1ccc3nc(Cc4cccc(F)c4)[nH]c3c1)nn2[C@H]1CC[C@H](N2CCOCC2)CC1`, the values for the pIC50 in [1] and in series [2] were 7.24 and 6.85, respectively.

Regarding `Cc1ccc(Cc2nc3ccc(-c4nn([C@H]5CC[C@H](N6CCOCC6)CC5)c5ncnc(N)c45)cc3[nH]2)cc1`, the values for the pIC50 in [1] and in [2] were 7.15 and 6.59, respectively.

Take `Nc1ncnc2c1c(-c1ccc3nc(Cc4ccccc4Cl)[nH]c3c1)nn2[C@H]1CC[C@H](N2CCOCC2)CC1`: the AUC in the series on Mus musculus [3] was determined as 0.43 µmol·h/L/mg/kg; in the series on Mus musculus [4], 1.5 µmol·h/L/mg/kg. The molecule also returned a concentration at 4 h in series [8] of 2400 nM. For the same molecule, the inhibition at 12.5 mg/kg in the series with Mus musculus [9] was 92%. In addition, the results for the negative-log IC50 (pIC50) in series [1] and in series [2] were 7.43 and 7.05, respectively. In series [5], this molecule gave a clearance of 20 mL/min/kg. Further, the half-life in series [6] was 1.2 h. For the same molecule, the bioavailability in [7] was found to be 28%.

As for `Cc1cccc(Cc2nc3ccc(-c4nn([C@H]5CC[C@H](N6CCOCC6)CC5)c5ncnc(N)c45)cc3[nH]2)c1`, the pIC50 in series [1] was 6.73; in series [2], 6.57.

Consider `Nc1ncnc2c1c(-c1ccc3[nH]c(Cc4cccc(Cl)c4Cl)nc3c1)nn2[C@H]1CC[C@H](N2CCOCC2)CC1`, for which the pIC50 in series [1] was 5.63.

For `Cc1cc(-c2nn([C@H]3CC[C@H](N4CCOCC4)CC3)c3ncnc(N)c23)cc2[nH]c(Cc3ccccc3)nc12`, the results for the pIC50 in [1] and in [2] were 5.36 and 5.55, respectively.

For the molecule `Nc1ncnc2c1c(-c1ccc3nc(Cc4ccccc4F)[nH]c3c1)nn2[C@H]1CC[C@H](N2CCOCC2)CC1`, the pIC50 in series [1] is 7.29; in series [2], 6.77.

For `Nc1ncnc2c1c(-c1ccc3nc(Cc4ccccn4)[nH]c3c1)nn2[C@H]1CC[C@H](N2CCOCC2)CC1`, the pIC50 is 5.63 in series [1] and 5.58 in [2].

In the case of `Nc1ncnc2c1c(-c1ccc3[nH]c(Cc4c(Cl)cccc4Cl)nc3c1)nn2[C@H]1CC[C@H](N2CCOCC2)CC1`, the pIC50 in [1] was 6.90; in [2], 6.60.

Take `Cn1c(Cc2ccccc2)nc2cc(-c3nn([C@H]4CC[C@H](N5CCOCC5)CC4)c4ncnc(N)c34)ccc21`: the pIC50 is 7.46 in series [1] and 6.88 in series [2].

Regarding `Nc1ncnc2c1c(-c1ccc3nc(Cc4ccc(Cl)cc4)[nH]c3c1)nn2[C@H]1CC[C@H](N2CCOCC2)CC1`, the pIC50 in series [1] was 6.19; in series [2], 6.20.

Regarding `Nc1ncnc2c1c(-c1ccc3nc(Cc4cccc(F)c4F)[nH]c3c1)nn2[C@H]1CC[C@H](N2CCOCC2)CC1`, the values for the pIC50 in series [1] and in series [2] were 6.76 and 6.71, respectively.

For the molecule `Nc1ncnc2c1c(-c1ccc3[nH]c(Cc4ccccc4Br)nc3c1)nn2[C@H]1CC[C@H](N2CCOCC2)CC1`, the pIC50 in series [1] is 7.15; in [2], 7.19.

In the case of `Nc1ncnc2c1c(-c1ccc3nc(Cc4ccc(Cl)c(Cl)c4)[nH]c3c1)nn2[C@H]1CC[C@H](N2CCOCC2)CC1`, the results for the negative-log IC50 (pIC50) in series [1] and in [2] were 6.31 and 6.37, respectively.

Regarding `Nc1ncnc2c1c(-c1ccc3nc(Cc4ccc(F)cc4)[nH]c3c1)nn2[C@H]1CC[C@H](N2CCOCC2)CC1`, the pIC50 in series [1] was 6.03; in [2], 5.90.

In the case of `COc1ccccc1Cc1nc2ccc(-c3nn([C@H]4CC[C@H](N5CCOCC5)CC4)c4ncnc(N)c34)cc2[nH]1`, the pIC50 in series [1] was 7.09; in series [2] it was 6.85.

Turning to `Nc1ncnc2c1c(-c1ccc3nc(Cc4cc(F)cc(F)c4)[nH]c3c1)nn2[C@H]1CC[C@H](N2CCOCC2)CC1`, the pIC50 in series [1] was 6.82; in series [2], 6.74.

Consider `Cc1nc(Cc2nc3ccc(-c4nn([C@H]5CC[C@H](N6CCOCC6)CC5)c5ncnc(N)c45)cc3[nH]2)cs1`, for which the pIC50 is 5.48 in series [1] and 5.81 in series [2].

The values are drawn from ChEMBL document CHEMBL1139781, “Pyrazolo[3,4-d]pyrimidines as potent inhibitors of the insulin-like growth factor receptor (IGF-IR)” (Bioorg Med Chem Lett, 2007).
